Reference: US20260248799A1, “COMBINATIONS OF RETINALDEHYDE DEHYDROGENASE 1 (RALDH1) INHIBITORS AND IMMUNOSTIMULATORS AND METHODS USING SAME” (The Trustees of the University of Pennsylvania, priority 2023, published 2026)

Tests used:
[1] = target: T1, Transporter, Dopamine (DAT) (Homo sapiens, UniProt Q01959); experiment: Safetyscreen: DAT; type: binding; settings: read-out: % Inh. Transporter, Dopamine (DAT)
T1 construct: purchased Eurofins Cereps Panlabs

[2] = system: Glycine, Strychnine-Sensitive; experiment: Safetyscreen: Glycine, Strychnine-Sensitive; type: binding, rat; settings: 10 μM
Glutamate, NMDA, Glycine = experiment: Safetyscreen: NMDA, Glycine; type: binding, rat; settings: 10 μM
[3] = system: ATPase, Na+/K+, Heart, Pig; experiment: Safetyscreen: ATPase, Na+/K+; type: biochemical; settings: 10 μM
[4] = system: Calcium Channel L-Type, Phenylalkylamine; experiment: Safetyscreen: Ca channel L-type, phenylalkylamine; type: binding, rat; settings: 10 μM
[5] = target: T2, Serotonin (5-Hydroxytryptamine) 5-HT3 (Homo sapiens, UniProt P46098); experiment: Safetyscreen: 5-HT3; type: binding; settings: read-out: % Inh. Serotonin (5-Hydroxytryptamine) 5-HT3
T2 construct: Eurofins Cereps Panlabs (contract panel)

Calcium Channel N-Type = target: T3, Calcium Channel N-Type (Rattus norvegicus, UniProt Q02294); experiment: Safetyscreen: Ca channel N-type; type: binding; settings: read-out: % Inh. Calcium Channel N-Type
T3 construct: purchased Eurofins Cereps Panlabs

[6] = target: T4, Protein Tyrosine Kinase, LCK (Homo sapiens, UniProt P06239); experiment: Safetyscreen: LCK; type: biochemical; settings: read-out: % Inh. Protein Tyrosine Kinase, LCK
T4 construct: Eurofins Cerep Panlabs (contract panel)

Bradykinin B2 = target: T5, Bradykinin B2 (Homo sapiens, UniProt P30411); experiment: Safetyscreen: Bradykinin B2; type: binding; settings: read-out: % Inh. Bradykinin B2
T5 construct: purchased Eurofins Cereps Panlabs

Chemokine CXCR2 (IL-8RB) = target: T6, Chemokine CXCR2 (IL-8RB) (Homo sapiens, UniProt P25025); experiment: Safetyscreen: CXCR2; type: binding; settings: read-out: % Inh. Chemokine CXCR2 (IL-8RB)
T6 construct: purchased Eurofins Cereps Panlabs

Adrenergic β1 = target: T7, Adrenergic β1 (Homo sapiens, UniProt P08588); experiment: Safetyscreen: Adrenergic β1; type: binding; settings: read-out: % Inh. Adrenergic β1
T7 construct: Eurofins Cerep Panlabs (contract panel)

Opiate δ1 (OP1, DOP) = target: T8, Opiate δ1 (OP1, DOP) (Homo sapiens, UniProt P41143); experiment: Safetyscreen: Opiate δ1; type: binding; settings: read-out: % Inh. Opiate δ1 (OP1, DOP)
T8 construct: Eurofins Cereps Panlabs (contract panel)

Vasopressin V1A = target: T9, Vasopressin V1A (Homo sapiens, UniProt P37288); experiment: Safetyscreen: Vasopressin V1A; type: binding; settings: read-out: % Inh. Vasopressin V1A
T9 construct: purchased Eurofins Cereps Panlabs

[7] = system: macrophages from primary human monocytes; experiment: Numbers of live monocyte-derived macrophages in vitro; type: cell-based; settings: C86 treated TCM or BMS493; three days
Procedure: FIGS. 24A-24E: Raldh1-INH blocks tumor supportive functions of monocytes and macrophages. FIG. 24A: Circulating primary human monocytes were collected from donors and cultured with MCSF (50 ng/mL) to generate macrophages. On day 3 of these cultures, DMSO or RA (100 nmol/L) was added to generate control monocyte-derived macrophages (Control-MoDM) or RA monocyte-derived macrophages (RA-MoDM), respectively. On day 7 of these cultures, macrophages were collected for each well after washing with 1×PBS, mixed with Huh7 cells at approximately 50:50 ratio, and the mix injected into the flanks of NU/J mice. Huh7 tumors cells that were not mixed with any macrophages before flank injection served as an additional control. Tumor volume was measured every 2 days (left graph). 19 days after tumor injection, mice were sacrificed and tumor weight (right graph) was measured. […] Three or more independent experiments were performed with at least three replicates per experimental group. Unpaired t test, two-tailed. […] Tumor growth was monitored daily (left graph). 13 days after tumor cell transplantation, mice were sacrificed and tumor weight measured (right graph). […] Three days later, cells were harvested, counted, and stained with PI for FCS analyses. […] Cell proliferation was measured by counting live cell numbers (y-axis). […] 72 hours later, the cells were washed, counted, and analyzed by FCS. […]

[8] = IP pharmacokinetics and tissue distribution of C-86 in C57BL/6J mice; type: in vivo, mouse; settings: for AUC(0-inf) / Cmax: male, C57BL/6J, mouse, mice, IP
Muscarinic M3 = target: T10, Muscarinic M3 (Homo sapiens, UniProt P20309); experiment: Safetyscreen: Muscarinic M3; type: binding; settings: read-out: % Inh. Muscarinic M3
T10 construct: Eurofins Cereps Panlabs (contract panel)

Androgen (Testosterone) = target: T11, Androgen (Testosterone) (Homo sapiens, UniProt P10275); experiment: Safetyscreen: Androgen; type: binding; settings: read-out: % Inh. Androgen (Testosterone)
T11 construct: Eurofins Cerep Panlabs (contract panel)
T11 sequence (P10275 whole entry): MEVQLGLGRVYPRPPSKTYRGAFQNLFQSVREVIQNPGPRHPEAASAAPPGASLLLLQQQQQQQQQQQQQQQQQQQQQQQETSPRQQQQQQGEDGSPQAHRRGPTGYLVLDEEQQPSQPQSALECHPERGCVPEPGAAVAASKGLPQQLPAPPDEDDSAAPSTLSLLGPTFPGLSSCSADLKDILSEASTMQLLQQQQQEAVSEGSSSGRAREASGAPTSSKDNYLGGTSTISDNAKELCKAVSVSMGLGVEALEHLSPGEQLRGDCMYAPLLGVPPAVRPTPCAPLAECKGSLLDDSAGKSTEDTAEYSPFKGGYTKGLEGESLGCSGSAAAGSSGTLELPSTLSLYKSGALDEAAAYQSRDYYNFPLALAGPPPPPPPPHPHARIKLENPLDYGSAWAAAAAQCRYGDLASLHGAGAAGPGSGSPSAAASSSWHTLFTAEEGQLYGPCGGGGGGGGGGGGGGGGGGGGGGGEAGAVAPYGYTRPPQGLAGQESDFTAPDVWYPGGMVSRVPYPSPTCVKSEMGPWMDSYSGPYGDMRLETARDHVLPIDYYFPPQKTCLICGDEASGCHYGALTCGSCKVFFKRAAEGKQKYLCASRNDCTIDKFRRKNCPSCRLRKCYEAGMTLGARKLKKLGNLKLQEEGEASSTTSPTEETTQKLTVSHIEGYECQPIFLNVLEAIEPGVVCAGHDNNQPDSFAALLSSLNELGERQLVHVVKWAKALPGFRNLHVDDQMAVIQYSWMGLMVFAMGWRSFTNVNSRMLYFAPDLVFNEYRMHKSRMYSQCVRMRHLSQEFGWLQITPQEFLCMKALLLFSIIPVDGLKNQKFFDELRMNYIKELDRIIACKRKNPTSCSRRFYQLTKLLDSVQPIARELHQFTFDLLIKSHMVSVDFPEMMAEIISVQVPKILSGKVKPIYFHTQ

T3 sequence (Q02294 whole entry): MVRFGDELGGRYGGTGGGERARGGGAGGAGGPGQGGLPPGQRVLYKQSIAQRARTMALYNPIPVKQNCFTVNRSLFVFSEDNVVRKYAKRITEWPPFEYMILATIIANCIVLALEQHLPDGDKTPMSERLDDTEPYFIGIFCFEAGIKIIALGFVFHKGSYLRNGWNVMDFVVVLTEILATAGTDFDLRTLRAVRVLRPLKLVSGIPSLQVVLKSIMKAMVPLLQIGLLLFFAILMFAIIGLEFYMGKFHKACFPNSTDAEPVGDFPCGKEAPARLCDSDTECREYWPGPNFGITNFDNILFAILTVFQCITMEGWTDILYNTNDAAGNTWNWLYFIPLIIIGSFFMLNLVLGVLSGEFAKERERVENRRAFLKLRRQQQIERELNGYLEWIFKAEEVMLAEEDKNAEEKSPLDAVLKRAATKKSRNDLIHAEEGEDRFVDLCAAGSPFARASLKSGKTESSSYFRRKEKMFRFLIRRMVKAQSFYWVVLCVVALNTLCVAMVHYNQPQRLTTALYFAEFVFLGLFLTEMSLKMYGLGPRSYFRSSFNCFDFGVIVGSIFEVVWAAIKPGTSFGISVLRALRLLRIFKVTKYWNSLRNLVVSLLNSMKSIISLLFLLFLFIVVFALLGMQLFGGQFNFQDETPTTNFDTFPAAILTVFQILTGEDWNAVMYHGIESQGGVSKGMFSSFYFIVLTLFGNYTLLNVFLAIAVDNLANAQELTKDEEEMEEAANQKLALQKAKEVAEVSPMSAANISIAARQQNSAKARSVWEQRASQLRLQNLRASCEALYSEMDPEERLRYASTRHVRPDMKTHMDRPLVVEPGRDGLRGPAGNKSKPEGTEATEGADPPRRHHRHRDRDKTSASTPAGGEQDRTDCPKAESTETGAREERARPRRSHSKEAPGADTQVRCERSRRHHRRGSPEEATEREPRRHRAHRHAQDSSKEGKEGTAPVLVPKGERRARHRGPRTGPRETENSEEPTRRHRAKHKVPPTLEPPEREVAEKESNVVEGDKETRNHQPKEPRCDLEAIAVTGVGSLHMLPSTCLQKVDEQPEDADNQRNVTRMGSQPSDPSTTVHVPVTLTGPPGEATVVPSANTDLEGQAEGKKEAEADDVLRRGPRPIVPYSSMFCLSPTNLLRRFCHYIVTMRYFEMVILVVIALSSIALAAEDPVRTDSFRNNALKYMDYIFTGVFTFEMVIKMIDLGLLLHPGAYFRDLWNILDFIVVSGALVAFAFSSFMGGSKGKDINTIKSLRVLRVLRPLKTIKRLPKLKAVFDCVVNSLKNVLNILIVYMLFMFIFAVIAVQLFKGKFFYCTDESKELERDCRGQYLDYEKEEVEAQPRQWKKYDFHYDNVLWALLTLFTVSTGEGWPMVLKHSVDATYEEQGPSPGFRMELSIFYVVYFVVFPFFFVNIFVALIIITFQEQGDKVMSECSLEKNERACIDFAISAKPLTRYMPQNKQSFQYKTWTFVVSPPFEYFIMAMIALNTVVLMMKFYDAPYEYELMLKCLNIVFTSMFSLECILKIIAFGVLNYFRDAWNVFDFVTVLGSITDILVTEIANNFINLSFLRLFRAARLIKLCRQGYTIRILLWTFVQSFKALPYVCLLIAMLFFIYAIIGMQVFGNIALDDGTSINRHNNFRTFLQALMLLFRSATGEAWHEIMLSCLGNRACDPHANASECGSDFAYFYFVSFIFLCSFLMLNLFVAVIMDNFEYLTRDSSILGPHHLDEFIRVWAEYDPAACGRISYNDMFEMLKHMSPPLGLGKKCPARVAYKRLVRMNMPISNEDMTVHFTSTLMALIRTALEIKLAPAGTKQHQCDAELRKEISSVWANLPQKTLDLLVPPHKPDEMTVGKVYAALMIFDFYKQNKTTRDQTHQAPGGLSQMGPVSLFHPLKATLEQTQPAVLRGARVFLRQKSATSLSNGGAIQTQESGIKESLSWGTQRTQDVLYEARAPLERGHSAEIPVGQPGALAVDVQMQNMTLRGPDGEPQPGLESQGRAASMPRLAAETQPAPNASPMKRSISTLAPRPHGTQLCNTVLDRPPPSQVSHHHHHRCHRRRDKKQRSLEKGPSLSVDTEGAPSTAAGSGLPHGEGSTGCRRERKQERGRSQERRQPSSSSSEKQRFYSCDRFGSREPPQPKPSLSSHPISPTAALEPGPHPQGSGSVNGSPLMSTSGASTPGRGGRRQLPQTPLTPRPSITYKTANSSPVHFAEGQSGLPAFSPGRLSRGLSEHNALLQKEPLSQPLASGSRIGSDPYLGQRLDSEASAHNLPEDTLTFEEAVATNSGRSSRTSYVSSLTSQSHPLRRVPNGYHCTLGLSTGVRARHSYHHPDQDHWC
T4 sequence (P06239 whole entry): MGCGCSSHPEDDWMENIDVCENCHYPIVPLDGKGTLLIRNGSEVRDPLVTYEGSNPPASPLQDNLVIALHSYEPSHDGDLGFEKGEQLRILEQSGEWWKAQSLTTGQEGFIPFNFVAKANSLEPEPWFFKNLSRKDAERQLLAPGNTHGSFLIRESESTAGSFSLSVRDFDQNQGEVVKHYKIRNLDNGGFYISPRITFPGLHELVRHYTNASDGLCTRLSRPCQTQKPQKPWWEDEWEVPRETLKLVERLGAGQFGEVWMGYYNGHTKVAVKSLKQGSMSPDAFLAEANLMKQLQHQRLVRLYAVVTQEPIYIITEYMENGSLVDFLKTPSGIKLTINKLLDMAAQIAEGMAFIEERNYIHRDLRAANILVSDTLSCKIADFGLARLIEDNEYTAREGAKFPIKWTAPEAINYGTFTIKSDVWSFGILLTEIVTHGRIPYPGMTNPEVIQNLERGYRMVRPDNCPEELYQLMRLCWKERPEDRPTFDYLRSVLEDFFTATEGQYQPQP
T8 sequence (P41143 whole entry): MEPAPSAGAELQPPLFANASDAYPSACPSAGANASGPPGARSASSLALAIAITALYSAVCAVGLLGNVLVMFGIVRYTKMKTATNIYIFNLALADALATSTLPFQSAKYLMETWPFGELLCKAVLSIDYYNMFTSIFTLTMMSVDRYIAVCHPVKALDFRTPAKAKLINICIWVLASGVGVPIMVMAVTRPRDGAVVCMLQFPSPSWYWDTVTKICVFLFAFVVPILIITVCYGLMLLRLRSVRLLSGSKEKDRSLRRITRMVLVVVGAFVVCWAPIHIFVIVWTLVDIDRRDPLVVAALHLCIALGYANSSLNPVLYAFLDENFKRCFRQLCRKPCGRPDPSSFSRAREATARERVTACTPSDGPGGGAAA
T7 sequence (P08588 whole entry): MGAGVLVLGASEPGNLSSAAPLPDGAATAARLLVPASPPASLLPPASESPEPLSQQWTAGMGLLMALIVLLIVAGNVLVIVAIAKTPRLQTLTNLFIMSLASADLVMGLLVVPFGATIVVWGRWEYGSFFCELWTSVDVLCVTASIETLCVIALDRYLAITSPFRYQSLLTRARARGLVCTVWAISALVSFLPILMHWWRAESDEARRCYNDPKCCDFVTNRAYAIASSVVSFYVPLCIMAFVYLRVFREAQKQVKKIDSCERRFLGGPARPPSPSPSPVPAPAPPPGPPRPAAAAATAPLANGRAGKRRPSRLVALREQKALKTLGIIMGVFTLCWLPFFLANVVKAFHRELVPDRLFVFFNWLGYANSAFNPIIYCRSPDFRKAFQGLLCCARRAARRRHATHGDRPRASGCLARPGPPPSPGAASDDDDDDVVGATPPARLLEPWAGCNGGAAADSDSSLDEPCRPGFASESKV
T5 sequence (P30411 whole entry): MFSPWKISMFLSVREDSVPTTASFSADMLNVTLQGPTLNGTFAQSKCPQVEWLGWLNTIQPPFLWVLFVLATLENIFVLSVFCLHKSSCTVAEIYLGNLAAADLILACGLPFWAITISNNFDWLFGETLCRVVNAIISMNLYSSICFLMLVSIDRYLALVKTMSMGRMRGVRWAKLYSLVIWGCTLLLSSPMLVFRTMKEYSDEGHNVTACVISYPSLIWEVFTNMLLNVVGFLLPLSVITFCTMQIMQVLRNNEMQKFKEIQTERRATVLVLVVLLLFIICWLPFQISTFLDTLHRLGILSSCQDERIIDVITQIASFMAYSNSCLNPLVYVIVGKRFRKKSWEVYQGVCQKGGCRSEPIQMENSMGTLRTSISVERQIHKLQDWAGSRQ

Question: With `CS(=O)(=O)N1CCN(C(=O)c2cnc3ccc(F)cc3c2N2CCC(C#N)(c3ccccc3)CC2)CC1` [Compound C-86, 1-(6-fluoro-3-(4-(methylsulfonyl)piperazine-1-carbonyl)quinolin-4-yl)-4-phenylpiperidine-4-carbonitrile] as the compound, how does the inhibition at 10 µM [1] read?
Answer: 8%

Question: What about the “% Inh. Glycine, Strychnine-Sensitive” value [2] of the same compound?
Answer: 23%

Question: And the “% Inh. Glutamate, NMDA, Glycine” value (Glutamate, NMDA, Glycine)?
Answer: 20%

Question: And the “% Inh. ATPase, Na+/K+, Heart, Pig” value [3]?
Answer: 2%

Question: And the “% Inh. Calcium Channel L-Type, Phenylalkylamine” value [4]?
Answer: 21%

Question: And the inhibition at 10 µM [5]?
Answer: 2%

Question: And the inhibition at 10 µM (Calcium Channel N-Type)?
Answer: 6%

Question: And the inhibition at 10 µM [6]?
Answer: 3%

Question: And the inhibition at 10 µM (Bradykinin B2)?
Answer: 2%

Question: What about the inhibition at 10 µM (Chemokine CXCR2 (IL-8RB)) of the same compound?
Answer: 8%

Question: And the inhibition at 10 µM (Adrenergic β1)?
Answer: 3%

Question: What about the inhibition at 10 µM (Opiate δ1 (OP1, DOP)) of the same compound?
Answer: 2%

Question: What about the inhibition at 10 µM (Vasopressin V1A) of the same compound?
Answer: -13%

Question: What about the “RA and tumor-CM induced increase in macrophage numbers” value [7] of the same compound?
Answer: reversed

Question: What about the “bio-distribution in various tissues” value ([8]; delivered i.p.) of the same compound?
Answer: good bio-distribution

Question: What about the AUC(0-inf) ([8]; 10 mg/kg, adipose (mesenteric)) of the same compound?
Answer: 121 µg·h/mL

Question: What about the Cmax ([8]; 10 mg/kg, adipose (mesenteric)) of the same compound?
Answer: 45.2 µg/mL

Question: What about the AUC(0-inf) ([8]; 10 mg/kg, brain) of the same compound?
Answer: 0.753 µg·h/mL

Question: And the Cmax ([8]; 10 mg/kg, brain)?
Answer: 0.362 µg/mL

Question: And the AUC(0-inf) ([8]; 10 mg/kg, liver)?
Answer: 32.9 µg·h/mL

Question: And the Cmax ([8]; 10 mg/kg, liver)?
Answer: 27.6 µg/mL

Question: And the AUC(0-inf) ([8]; 10 mg/kg, pancreas)?
Answer: 35 µg·h/mL

Question: And the Cmax ([8]; 10 mg/kg, pancreas)?
Answer: 34.4 µg/mL

Question: And the AUC(0-inf) ([8]; 10 mg/kg, plasma)?
Answer: 3.72 µg·h/mL

Question: What about the Cmax ([8]; 10 mg/kg, plasma) of the same compound?
Answer: 2.93 µg/mL

Question: And the AUC(0-inf) ([8]; 30 mg/kg, adipose (mesenteric))?
Answer: 832 µg·h/mL

Question: And the Cmax ([8]; 30 mg/kg, adipose (mesenteric))?
Answer: 140 µg/mL

Question: What about the AUC(0-inf) ([8]; 30 mg/kg, brain) of the same compound?
Answer: 4.52 µg·h/mL

Question: What about the Cmax ([8]; 30 mg/kg, brain) of the same compound?
Answer: 1.15 µg/mL

Question: And the AUC(0-inf) ([8]; 30 mg/kg, liver)?
Answer: 174 µg·h/mL

Question: And the Cmax ([8]; 30 mg/kg, liver)?
Answer: 70.5 µg/mL

Question: What about the AUC(0-inf) ([8]; 30 mg/kg, pancreas) of the same compound?
Answer: 276 µg·h/mL

Question: And the Cmax ([8]; 30 mg/kg, pancreas)?
Answer: 149 µg/mL

Question: What about the AUC(0-inf) ([8]; 30 mg/kg, plasma) of the same compound?
Answer: 28 µg·h/mL

Question: What about the Cmax ([8]; 30 mg/kg, plasma) of the same compound?
Answer: 11.6 µg/mL

Question: What about the inhibition at 10 µM (Muscarinic M3) of the same compound?
Answer: 5%

Question: What about the inhibition at 10 µM (Androgen (Testosterone)) of the same compound?
Answer: 16%
